Test results published in BindingDB's records for patent US10544113 (National Health Research Institute; Regents of the …, 2020).

Molecular target: Mu-type opioid receptor (Homo sapiens, UniProt P35372)
Assay: FLIPR Calcium Assay
Procedure: One day before the assay, CORNING black with clear flat bottom 96-well assay plates were coated with a 0.1 mg/mL Poly-L-Lysine solution. CHO-K1/MOR/Gα15 cells were suspended in the F12 medium and plated at a density of 8×10^4 cells/well in 200 μL medium. Cells were incubated in a humidified atmosphere of 10% CO2 at 37° C. overnight so as to reach an 80-90% confluent cell monolayer before assay. At the day of assay, 150 μL medium/well was removed from plate. To each well, 50 μL FLIPR calcium assay reagent dissolved in 1× assay buffer (HBSS: KCl 5 mM, KH2PO4 0.3 mM, NaCl 138 mM, NaHCO3 4 mM, Na2HPO4 0.3 mM, d-glucose 5.6 mM, with additional 20 mM HEPES and 13 mM CaCl2, pH 7.4), with 2.5 mM probenecid was added and the plate was incubated at 37° C. for 1 h. Compounds and other reagents were dissolved in the assay buffer. Using a FlexStationIII (Molecular Devices Corp.), the [Ca2+]i fluorescence increases after robotic injections of compounds or other reagents were monitored every 1.52 s interval with excitation wavelength at 485 nm and with emission wavelength at 525 nm. The [Ca2+]i fluorescence was measured up to 90 s after agonist injection.

Mu-type opioid receptor, sequence (P35372 whole entry): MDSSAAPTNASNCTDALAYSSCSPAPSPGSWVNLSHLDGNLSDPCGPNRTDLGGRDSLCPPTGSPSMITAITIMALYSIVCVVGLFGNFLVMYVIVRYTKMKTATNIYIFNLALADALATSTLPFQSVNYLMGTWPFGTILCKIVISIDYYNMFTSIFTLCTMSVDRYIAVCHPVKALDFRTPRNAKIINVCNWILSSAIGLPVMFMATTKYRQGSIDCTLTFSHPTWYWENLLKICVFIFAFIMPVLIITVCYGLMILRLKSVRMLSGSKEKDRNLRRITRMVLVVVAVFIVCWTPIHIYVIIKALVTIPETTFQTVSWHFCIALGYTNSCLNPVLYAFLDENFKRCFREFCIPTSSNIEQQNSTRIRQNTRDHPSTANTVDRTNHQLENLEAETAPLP

Row | Structure (SMILES) | EC50
1 | COc1cc(N2C(=O)CSC2c2ccc(F)cc2)cc(OC)c1OC (stereo not drawn) [US10544113, No. 16] | 8.3 µM
2 | Cc1cc(C(=O)OCCN2CCCC2)ccc1N1C(=O)CSC1c1ccc(F)cc1 (stereo not drawn) [US10544113, No. 294] | 2.9 µM
3 | COc1ccc(F)cc1N1C(=O)CSC1c1ccc(F)c(F)c1 (stereo not drawn) [US10544113, No. 4] | 3.3 µM
4 | COc1ccccc1N1C(=O)CSC1c1cccc(F)c1 (stereo not drawn) [US10544113, No. 1] | 12.4 µM
5 | COc1ccc(F)cc1N1C(=O)CSC1c1ccc(F)cc1 (stereo not drawn) [US10544113, No. 6] | 3.9 µM
6 | COCCOCCOC(=O)c1ccc(N2C(=O)CSC2c2ccc(F)cc2)c(C)c1 (stereo not drawn) [US10544113, No. 280] | 7.1 µM
7 | Cc1cccc(F)c1N1C(=O)CSC1c1ccc(F)cc1 (stereo not drawn) [US10544113, No. 108] | 3.3 µM
8 | COc1ccccc1N1C(=O)CSC1c1ccc(F)cc1 (stereo not drawn) [US10544113, No. 2] | 19 µM
9 | COCCCNC(=O)c1ccc(N2C(=O)CSC2c2ccc(F)cc2)c(C)c1 (stereo not drawn) [US10544113, No. 343] | 3.7 µM
10 | Cc1cc(C(=O)NCCN2CCOCC2)ccc1N1C(=O)CSC1c1ccc(F)cc1 (stereo not drawn) [US10544113, No. 344] | 7 µM
11 | COc1ccc(F)cc1N1C(=O)CSC1c1cccc(F)c1 (stereo not drawn) [US10544113, No. 5] | 5.2 µM
12 | Cc1cc(C(=O)OCCCc2ccccc2)ccc1N1C(=O)CSC1c1ccc(F)cc1 (stereo not drawn) [US10544113, No. 253] | 11.2 µM
13 | Cc1cc(C(=O)NCCc2ccccc2Cl)ccc1N1C(=O)CSC1c1ccc(F)cc1 (stereo not drawn) [US10544113, No. 384] | 6.6 µM
